We go through nine cell lines from the supplement of paper PMC10307832.

Assay in all cases: relative viability (nuclei count vs DMSO), 5 days (fraction); higher = more cells survive
Compound in the experiment “Dovitinib + Pictilisib”: CN1CCN(c2ccc3nc(-c4c(N)c5c(F)cccc5[nH]c4=O)[nH]c3c2)CC1 [Dovitinib] + CS(=O)(=O)N1CCN(Cc2cc3nc(-c4cccc5[nH]ncc45)nc(N4CCOCC4)c3s2)CC1 [Pictilisib] (partner 1 µM)
The method, boiled down:
(§1)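 For relative viability, nuclei counts in treated wells were divided by those in vehicle wells. Lung cancer cell lines had been pin-tool dosed in 1536-well plates the day after seeding and cultured for 5 days, then fixed and stained in one step (final 0.05% Triton X-100, 1% formaldehyde, 1 ug/ml Hoechst) and imaged at 4×. Doses were one drug alone or a fixed anchor-drug dose plus five library-drug doses (not always all listed) in √10 steps, and values are duplicate-plate medians.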

Compound in the experiment “Dovitinib + Phenformin”: CN1CCN(c2ccc3nc(-c4c(N)c5c(F)cccc5[nH]c4=O)[nH]c3c2)CC1 [Dovitinib] + N=C(N)NC(=N)NCCc1ccccc1 [Phenformin] (partner 250 µM)
The method, boiled down:
as §1

Compound in the experiment “Dovitinib + Palbociclib”: CN1CCN(c2ccc3nc(-c4c(N)c5c(F)cccc5[nH]c4=O)[nH]c3c2)CC1 [Dovitinib] + CC(=O)c1c(C)c2cnc(Nc3ccc(N4CCNCC4)cn3)nc2n(C2CCCC2)c1=O [Palbociclib] (partner 0.5 µM)
The method, boiled down: as §1

Compound in the experiment “Dovitinib + Decitabine”: CN1CCN(c2ccc3nc(-c4c(N)c5c(F)cccc5[nH]c4=O)[nH]c3c2)CC1 [Dovitinib] + Nc1ncn([C@H]2C[C@H](O)[C@@H](CO)O2)c(=O)n1 [Decitabine] (partner 2 µM)
The gist of the method:
as §1

NCI-H2087: the relative viability with Dovitinib + Pictilisib (first compound 0.02 µM) was determined as 1.05; in the experiment with Dovitinib + Pictilisib (first compound 0.06325 µM), 0.907; with Dovitinib + Pictilisib (first compound 0.2 µM) it was 0.845; in the experiment with Dovitinib + Pictilisib (first compound 0.6325 µM), 0.907; with Dovitinib + Pictilisib (first compound 2 µM), 0.892; with Dovitinib + Phenformin (first compound 0.02 µM) it was 0.415. The relative viability stood at 0.437 in the experiment with Dovitinib + Phenformin (first compound 0.06325 µM); 0.516 in the experiment with Dovitinib + Phenformin (first compound 0.2 µM); 0.53 with Dovitinib + Phenformin (first compound 0.6325 µM); 0.467 with Dovitinib + Phenformin (first compound 2 µM); 0.276 with Dovitinib + Palbociclib (first compound 0.02 µM); 0.229 with Dovitinib + Palbociclib (first compound 0.06325 µM). The relative viability in the experiment with Dovitinib + Palbociclib (first compound 0.2 µM) is 0.191; with Dovitinib + Palbociclib (first compound 0.6325 µM) it was 0.197; with Dovitinib + Palbociclib (first compound 2 µM) it was 0.255; in the experiment with Dovitinib + Decitabine (first compound 0.02 µM), 0.312; with Dovitinib + Decitabine (first compound 0.06325 µM) it was 0.307; with Dovitinib + Decitabine (first compound 0.2 µM), 0.269. Also, the relative viability is 0.357 in the experiment with Dovitinib + Decitabine (first compound 0.6325 µM) and 0.329 with Dovitinib + Decitabine (first compound 2 µM).

With NCI-H2228, the relative viability in the experiment with Dovitinib + Pictilisib (first compound 0.02 µM) amounted to 0.317; with Dovitinib + Pictilisib (first compound 0.06325 µM), 0.345; with Dovitinib + Pictilisib (first compound 0.2 µM), 0.335; with Dovitinib + Pictilisib (first compound 0.6325 µM), 0.462; with Dovitinib + Pictilisib (first compound 2 µM), 0.271; with Dovitinib + Phenformin (first compound 0.02 µM), 0.288. The relative viability with Dovitinib + Phenformin (first compound 0.06325 µM) was 0.419; with Dovitinib + Phenformin (first compound 0.2 µM), 0.285; with Dovitinib + Phenformin (first compound 0.6325 µM), 0.432; in the experiment with Dovitinib + Phenformin (first compound 2 µM) it was 0.285; with Dovitinib + Palbociclib (first compound 0.02 µM), 0.763; in the experiment with Dovitinib + Palbociclib (first compound 0.06325 µM) it was 0.815. Further, the relative viability with Dovitinib + Palbociclib (first compound 0.2 µM) stood at 0.696; with Dovitinib + Palbociclib (first compound 0.6325 µM), 0.79; in the experiment with Dovitinib + Palbociclib (first compound 2 µM), 0.678.

On to NCI-H727, for which the relative viability stood at 0.456 with Dovitinib + Pictilisib (first compound 0.02 µM); 0.379 in the experiment with Dovitinib + Pictilisib (first compound 0.06325 µM); 0.423 in the experiment with Dovitinib + Pictilisib (first compound 0.2 µM); 0.427 with Dovitinib + Pictilisib (first compound 0.6325 µM); 0.395 in the experiment with Dovitinib + Pictilisib (first compound 2 µM); 0.524 with Dovitinib + Phenformin (first compound 0.02 µM). In addition, the relative viability with Dovitinib + Phenformin (first compound 0.06325 µM) is 0.488; in the experiment with Dovitinib + Phenformin (first compound 0.2 µM), 0.664; in the experiment with Dovitinib + Phenformin (first compound 0.6325 µM), 0.516; with Dovitinib + Phenformin (first compound 2 µM), 0.642; in the experiment with Dovitinib + Palbociclib (first compound 0.02 µM), 0.667; with Dovitinib + Palbociclib (first compound 0.06325 µM) it was 0.62. The relative viability with Dovitinib + Palbociclib (first compound 0.2 µM) was 0.669; with Dovitinib + Palbociclib (first compound 0.6325 µM), 0.671; in the experiment with Dovitinib + Palbociclib (first compound 2 µM), 0.668; in the experiment with Dovitinib + Decitabine (first compound 0.02 µM), 0.824; with Dovitinib + Decitabine (first compound 0.06325 µM) it was 0.685; with Dovitinib + Decitabine (first compound 0.2 µM) it was 0.884. Moreover, the relative viability with Dovitinib + Decitabine (first compound 0.6325 µM) turned out to be 1.03; with Dovitinib + Decitabine (first compound 2 µM) it was 0.926.

NCI-H650: the relative viability with Dovitinib + Pictilisib (first compound 0.02 µM) is 0.867; in the experiment with Dovitinib + Pictilisib (first compound 0.06325 µM) it was 0.789; in the experiment with Dovitinib + Pictilisib (first compound 0.2 µM), 0.931; in the experiment with Dovitinib + Pictilisib (first compound 0.6325 µM) it was 0.758; in the experiment with Dovitinib + Pictilisib (first compound 2 µM), 1.01; in the experiment with Dovitinib + Phenformin (first compound 0.02 µM) it was 0.442. Besides, the relative viability was 0.417 with Dovitinib + Phenformin (first compound 0.06325 µM); 0.446 in the experiment with Dovitinib + Phenformin (first compound 0.2 µM); 0.461 with Dovitinib + Phenformin (first compound 0.6325 µM); 0.504 with Dovitinib + Phenformin (first compound 2 µM); 0.321 with Dovitinib + Palbociclib (first compound 0.02 µM); 0.333 with Dovitinib + Palbociclib (first compound 0.06325 µM). The relative viability amounted to 0.359 in the experiment with Dovitinib + Palbociclib (first compound 0.2 µM); 0.317 with Dovitinib + Palbociclib (first compound 0.6325 µM); 0.357 with Dovitinib + Palbociclib (first compound 2 µM); 0.29 with Dovitinib + Decitabine (first compound 0.02 µM); 0.309 with Dovitinib + Decitabine (first compound 0.06325 µM); 0.331 in the experiment with Dovitinib + Decitabine (first compound 0.2 µM). Also, the relative viability amounted to 0.333 with Dovitinib + Decitabine (first compound 0.6325 µM) and 0.279 with Dovitinib + Decitabine (first compound 2 µM).

In the case of NCI-H520, the relative viability came to 0.203 with Dovitinib + Pictilisib (first compound 0.02 µM); 0.247 with Dovitinib + Pictilisib (first compound 0.06325 µM); 0.337 with Dovitinib + Pictilisib (first compound 0.2 µM); 0.269 in the experiment with Dovitinib + Pictilisib (first compound 0.6325 µM); 0.227 with Dovitinib + Pictilisib (first compound 2 µM); 0.558 with Dovitinib + Phenformin (first compound 0.02 µM). Also, the relative viability was 0.572 with Dovitinib + Phenformin (first compound 0.06325 µM); 0.625 with Dovitinib + Phenformin (first compound 0.2 µM); 0.514 with Dovitinib + Phenformin (first compound 0.6325 µM); 0.545 with Dovitinib + Phenformin (first compound 2 µM); 0.206 in the experiment with Dovitinib + Palbociclib (first compound 0.02 µM); 0.213 with Dovitinib + Palbociclib (first compound 0.06325 µM). Also, the relative viability with Dovitinib + Palbociclib (first compound 0.2 µM) was determined as 0.214; in the experiment with Dovitinib + Palbociclib (first compound 0.6325 µM), 0.266; with Dovitinib + Palbociclib (first compound 2 µM), 0.162; in the experiment with Dovitinib + Decitabine (first compound 0.02 µM), 0.477; in the experiment with Dovitinib + Decitabine (first compound 0.06325 µM), 0.504; with Dovitinib + Decitabine (first compound 0.2 µM), 0.488. The relative viability with Dovitinib + Decitabine (first compound 0.6325 µM) was found to be 0.499; in the experiment with Dovitinib + Decitabine (first compound 2 µM), 0.514.

Turning to EBC-1, the relative viability in the experiment with Dovitinib + Pictilisib (first compound 0.02 µM) came to 0.422; with Dovitinib + Pictilisib (first compound 0.06325 µM), 0.35; in the experiment with Dovitinib + Pictilisib (first compound 0.2 µM) it was 0.336; in the experiment with Dovitinib + Pictilisib (first compound 0.6325 µM), 0.342; with Dovitinib + Pictilisib (first compound 2 µM), 0.453.

For NCI-H661, the relative viability with Dovitinib + Pictilisib (first compound 0.02 µM) stood at 0.427; in the experiment with Dovitinib + Pictilisib (first compound 0.06325 µM), 0.465; with Dovitinib + Pictilisib (first compound 0.2 µM) it was 0.455; in the experiment with Dovitinib + Pictilisib (first compound 0.6325 µM), 0.427; in the experiment with Dovitinib + Pictilisib (first compound 2 µM) it was 0.359; with Dovitinib + Phenformin (first compound 0.02 µM), 0.267. For the same cell line, the relative viability in the experiment with Dovitinib + Phenformin (first compound 0.06325 µM) stood at 0.328; in the experiment with Dovitinib + Phenformin (first compound 0.2 µM), 0.304; with Dovitinib + Phenformin (first compound 0.6325 µM) it was 0.268; in the experiment with Dovitinib + Phenformin (first compound 2 µM), 0.308; in the experiment with Dovitinib + Palbociclib (first compound 0.02 µM), 0.414; in the experiment with Dovitinib + Palbociclib (first compound 0.06325 µM), 0.453. The relative viability with Dovitinib + Palbociclib (first compound 0.2 µM) amounted to 0.429; with Dovitinib + Palbociclib (first compound 0.6325 µM), 0.426; in the experiment with Dovitinib + Palbociclib (first compound 2 µM), 0.432; with Dovitinib + Decitabine (first compound 0.02 µM), 0.573; in the experiment with Dovitinib + Decitabine (first compound 0.06325 µM), 0.591; in the experiment with Dovitinib + Decitabine (first compound 0.2 µM), 0.652. In addition, the relative viability in the experiment with Dovitinib + Decitabine (first compound 0.6325 µM) was determined as 0.571; in the experiment with Dovitinib + Decitabine (first compound 2 µM) it was 0.595.

As to NCI-H1299, the relative viability in the experiment with Dovitinib + Pictilisib (first compound 0.02 µM) amounted to 0.897; with Dovitinib + Pictilisib (first compound 0.06325 µM), 0.8; with Dovitinib + Pictilisib (first compound 0.2 µM), 0.69; in the experiment with Dovitinib + Pictilisib (first compound 0.6325 µM), 0.626; in the experiment with Dovitinib + Pictilisib (first compound 2 µM), 0.789.

For the cell line LK-2, the relative viability in the experiment with Dovitinib + Pictilisib (first compound 0.02 µM) is 0.525; with Dovitinib + Pictilisib (first compound 0.06325 µM), 0.546; in the experiment with Dovitinib + Pictilisib (first compound 0.2 µM), 0.475; in the experiment with Dovitinib + Pictilisib (first compound 0.6325 µM), 0.516; with Dovitinib + Pictilisib (first compound 2 µM), 0.57; with Dovitinib + Phenformin (first compound 0.02 µM) it was 0.539. In addition, the relative viability in the experiment with Dovitinib + Phenformin (first compound 0.06325 µM) was 0.306; with Dovitinib + Phenformin (first compound 0.2 µM), 0.38; with Dovitinib + Phenformin (first compound 0.6325 µM), 0.486; with Dovitinib + Phenformin (first compound 2 µM), 0.342; with Dovitinib + Palbociclib (first compound 0.02 µM) it was 0.648; in the experiment with Dovitinib + Palbociclib (first compound 0.06325 µM), 0.734. For the same cell line, the relative viability with Dovitinib + Palbociclib (first compound 0.2 µM) amounted to 0.676; with Dovitinib + Palbociclib (first compound 0.6325 µM), 0.646; in the experiment with Dovitinib + Palbociclib (first compound 2 µM), 0.854; with Dovitinib + Decitabine (first compound 0.02 µM), 0.267; with Dovitinib + Decitabine (first compound 0.06325 µM) it was 0.333; with Dovitinib + Decitabine (first compound 0.2 µM), 0.295. The results for the relative viability with Dovitinib + Decitabine (first compound 0.6325 µM) and with Dovitinib + Decitabine (first compound 2 µM) were 0.384 and 0.268, respectively.
